Patent US11731964B2, “Benzamide antibacterial agents” (Purdue Research Foundation, priority 2018, dated 2023)
Values after ≈ are worked out from the molar mass of the structure shown. Where two headings read alike, the source gives them in different places.

Experiments:
[1] = tested on: Escherichia coli JW5503-1 (ΔtolC); experiment: MIC against Gram-negative pathogens (efflux pump knockout); format: cell-based
Protocol: (§1) Bacteria were cultured in cation-adjusted Mueller Hinton Broth (for strains in Tables 1 and 4) or Brain Heart Infusion broth (for Enterococcus faecium) or Tryptic Soy Broth (all other bacteria) in a 96-well plate at 37° C. for at least 20 hours. The MIC was classified as the lowest concentration where no visual growth of bacteria was observed. The minimum bactericidal concentration (MBC) was tested by spotting 4 μL from wells with no growth onto Tryptic Soy Agar (TSA) plates. Plates were incubated at 37° C. for at least 18 hours before recording the MBC.

[2] = tested on: Escherichia coli BW25113; experiment: MIC against Gram-negative pathogens; format: cell-based
Protocol: as §1

[3] = tested on: MRSA ATCC 33592; experiment: MIC, broth microdilution; format: cell-based; settings: Staphylococcus aureus
Protocol: as §1

[4] = tested on: C. difficile NR-32883 (P2); experiment: Clostridium difficile inhibition analysis; format: cell-based; settings: for Antibacterial activity: Table 7, C. difficile NR-32883 (P2)
[5] = tested on: E. faecalis; experiment: MIC (Table 5, strain not given); format: cell-based; settings: Enterococcus faecalis; E. faecalis (Table 5)
Protocol: as §1

[6] = tested on: L. monocytogenes; experiment: MIC (Table 5, strain not given); format: cell-based; settings: Listeria monocytogenes; L. monocytogenes (Table 5)
Protocol: as §1

[7] = tested on: S. aureus; experiment: MIC (Table 5, strain not given); format: cell-based; settings: Staphylococcus aureus; S. aureus (Table 5)
Protocol: as §1

[8] = tested on: VRE; experiment: MIC (Table 5, strain not given); format: cell-based; settings: Enterococcus; VRE (Table 5)
Protocol: as §1

[9] = tested on: C. difficile NR-13435 (isolate 9); experiment: Clostridium difficile inhibition analysis; format: cell-based; settings: for Antibacterial activity: Table 7, C. difficile NR-13435 (isolate 9)
[10] = tested on: Clostridium difficile ATCC 43255; experiment: Clostridium difficile inhibition analysis; format: cell-based; settings: for Antibacterial activity: Table 7, C. difficile ATCC 43255
[11] = tested on: C. difficile NR-13432 (isolate 6); experiment: Clostridium difficile inhibition analysis; format: cell-based; settings: for Antibacterial activity: Table 7, C. difficile NR-13432 (isolate 6)
[12] = tested on: C. difficile NR-32891 (P13); experiment: Clostridium difficile inhibition analysis; format: cell-based; settings: for Antibacterial activity: Table 7, C. difficile NR-32891 (P13)
[13] = tested on: C. difficile NR-32895 (P19); experiment: Clostridium difficile inhibition analysis; format: cell-based; settings: for Antibacterial activity: Table 7, C. difficile NR-32895 (P19)
[14] = tested on: C. difficile NR-32904 (P30); experiment: Clostridium difficile inhibition analysis; format: cell-based; settings: for Antibacterial activity: Table 7, C. difficile NR-32904 (P30)
[15] = tested on: MRSA NRS119; experiment: MIC and MBC; format: cell-based, Staphylococcus aureus
Protocol: as §1

[16] = tested on: VISA NRS1; experiment: MIC and MBC; format: cell-based, S. aureus; settings: Staphylococcus aureus
Protocol: as §1

[17] = tested on: VRSA VRS12; experiment: MIC and MBC; format: cell-based, S. aureus
Protocol: as §1

[18] = tested on: MRSA NRS387 (USA800); experiment: MIC and MBC; format: cell-based; settings: Staphylococcus aureus
Protocol: as §1

[19] = tested on: E. faecium ATCC; experiment: MIC and MBC; format: cell-based
Protocol: as §1

[20] = tested on: MRSA NRS386 (USA700); experiment: MIC and MBC; format: cell-based; settings: Staphylococcus aureus
Protocol: as §1

[21] = tested on: MRSA NRS385 (USA500); experiment: MIC and MBC; format: cell-based; settings: Staphylococcus aureus
Protocol: as §1

[22] = tested on: MRSA NRS123 (USA400); experiment: MIC and MBC; format: cell-based; settings: Staphylococcus aureus
Protocol: as §1

[23] = tested on: MRSA NRS384 (USA300); experiment: MIC and MBC; format: cell-based; settings: Staphylococcus aureus
Protocol: as §1

[24] = tested on: MRSA USA300; experiment: Time-kill analysis; format: cell-based, Staphylococcus aureus
Protocol: The time-kill analysis was performed as previously described^29. […] Aliquots (100 μL) were collected from each treatment after 0, 2, 4, 8, 12, and 24 hours of incubation at 37° C. and subsequently serially diluted in phosphate-buffered saline (PBS). Bacteria were then transferred to TSA plates and incubated at 37° C. for 18-20 hours before viable CFU/mL was determined.

[25] = tested on: L. monocytogenes ATCC 19115; experiment: MIC, broth microdilution; format: cell-based; settings: Listeria monocytogenes, ATCC19115
Protocol: as §1

[26] = tested on: VRE (E. faecalis) ATCC 51575; experiment: MIC, broth microdilution; format: cell-based
Protocol: as §1

[27] = tested on: E. faecalis ATCC 29212; experiment: MIC, broth microdilution; format: cell-based; settings: Enterococcus faecalis, ATCC29212
Protocol: as §1

[28] = tested on: S. aureus ATCC 25923; experiment: MIC, broth microdilution; format: cell-based; settings: Staphylococcus aureus, ATCC25923
Protocol: as §1

[29] = tested on: Clostridium difficile ATCC BAA 1801; experiment: Clostridium difficile inhibition analysis; format: cell-based
[30] = tested on: Clostridium difficile ATCC 9689; experiment: Clostridium difficile inhibition analysis; format: cell-based; settings: Table 6, ATCC 9689
[31] = tested on: Klebsiella pneumoniae BAA-1706; experiment: MIC against Gram-negative pathogens; format: cell-based
Protocol: as §1

[32] = tested on: Acinetobacter baumannii ATCC 19606; experiment: MIC against Gram-negative pathogens; format: cell-based
Protocol: as §1

[33] = tested on: Pseudomonas aeruginosa ATCC 15442; experiment: MIC against Gram-negative pathogens; format: cell-based
Protocol: as §1

For `CC[C@H]1OC(=O)[C@H](C)[C@@H](O[C@H]2C[C@@](C)(OC)[C@@H](O)[C@H](C)O2)[C@H](C)[C@@H](O[C@@H]2O[C@H](C)C[C@H](N(C)C)[C@H]2O)[C@](C)(O)C[C@@H](C)C(=O)[C@H](C)[C@@H](O)[C@]1(C)O` [Erythromycin], the MIC [1] was ≤ 1 µg/mL and the MIC ([2]; Escherichia coli BW25113 (wild-type), read-out: MIC) was 32 µg/mL (≈ 43.6 µM).

`C[C@@H]1C[C@H](C)CN(S(=O)(=O)c2ccc(C(=O)Nc3nnc(-c4ccc(C(F)(F)F)cc4)o3)cc2)C1` [HSGN-94, 4-(((3S,5R)-3,5-dimethylpiperidin-1-yl)sulfonyl)-N-(5-(4-(trifluoromethyl)phenyl)-1,3,4-oxadiazol-2-yl)benzamide] showed an MIC ([3]; MRSA ATCC 33592, read-out: MIC) of 0.25 µg/mL (≈ 0.492 µM), an Antibacterial activity [4] of 0.06 and an MIC [5] of 2 µg/mL (≈ 3.93 µM). It also gave an MIC [6] of 0.5 µg/mL (≈ 0.983 µM), an MIC [7] of 0.25 µg/mL (≈ 0.492 µM) and an MIC [8] of 1 µg/mL (≈ 1.97 µM). It also gave an Antibacterial activity [9] of 0.06, an Antibacterial activity [10] of 0.06 and an Antibacterial activity [11] of 0.06. The Antibacterial activity [12] was 0.125, the Antibacterial activity [13] was 0.06 and the Antibacterial activity [14] was 0.125.

In the case of `CC(=O)NC[C@H]1CN(c2ccc(N3CCOCC3)c(F)c2)C(=O)O1` [Linezolid], the MIC ([15]; MRSA NRS119) is reported as “inactive”, the MBC ([15]; Staphylococcus aureus, MRSA NRS119, read-out: MBC) is reported as 32 µg/mL (≈ 94.9 µM) and the MIC ([15]; Staphylococcus aureus, MRSA NRS119, read-out: MIC) is reported as 32 µg/mL (≈ 94.9 µM). For the same compound, the MBC ([16]; VISA NRS1, read-out: MBC) was 1 µg/mL (≈ 2.96 µM), the MIC ([16]; VISA NRS1, read-out: MIC) was ≤ 1 µg/mL and the MBC ([17]; Staphylococcus aureus, VRSA VRS12, read-out: MBC) was 32 µg/mL (≈ 94.9 µM). The MIC ([17]; Staphylococcus aureus, VRSA VRS12, read-out: MIC) was ≤ 1 µg/mL, the MBC ([18]; MRSA NRS387 (USA800), read-out: MBC) was 128 µg/mL (≈ 379 µM) and the MIC ([18]; MRSA NRS387 (USA800), read-out: MIC) was ≤ 1 µg/mL. The MBC ([19]; Enterococcus faecium, E. faecium ATCC, read-out: MBC) was 64 µg/mL (≈ 190 µM), the MIC ([19]; Enterococcus faecium, E. faecium ATCC, read-out: MIC) was ≤ 1 µg/mL and the MBC ([20]; MRSA NRS386 (USA700), read-out: MBC) was 128 µg/mL (≈ 379 µM). For the same compound, the MIC ([20]; MRSA NRS386 (USA700), read-out: MIC) was ≤ 1 µg/mL, the MBC ([21]; MRSA NRS385 (USA500), read-out: MBC) was 2 µg/mL (≈ 5.93 µM) and the MIC ([21]; MRSA NRS385 (USA500), read-out: MIC) was ≤ 1 µg/mL. The MBC ([22]; MRSA NRS123 (USA400), read-out: MBC) was 64 µg/mL (≈ 190 µM), the MIC ([22]; MRSA NRS123 (USA400), read-out: MIC) was ≤ 1 µg/mL and the MBC ([23]; MRSA NRS384 (USA300), read-out: MBC) was 64 µg/mL (≈ 190 µM). The MIC ([23]; MRSA NRS384 (USA300), read-out: MIC) was ≤ 1 µg/mL, the “reduction in MRSA USA300 (time-kill)” value ([24]; 3×MIC, after a 24-hour incubation period) was 2.16 log10 and the “in vitro effect against MRSA USA300” value ([24]; time-kill analysis and MBC) was “bacteriostatic”. The MIC [1] was 8 µg/mL (≈ 23.7 µM) and the MIC ([2]; Escherichia coli, BW25113) was > 128 µg/mL.

For `CN[C@H](CC(C)C)C(=O)N[C@H]1C(=O)N[C@@H](CC(N)=O)C(=O)N[C@H]2C(=O)N[C@H]3C(=O)N[C@H](C(=O)N[C@H](C(=O)O)c4cc(O)cc(O)c4-c4cc3ccc4O)[C@H](O)c3ccc(c(Cl)c3)Oc3cc2cc(c3O[C@@H]2O[C@H](CO)[C@@H](O)[C@H](O)[C@H]2O[C@H]2C[C@](C)(N)[C@H](O)[C@H](C)O2)Oc2ccc(cc2Cl)[C@H]1O` [Vancomycin, reference compound], the MBC ([15]; Staphylococcus aureus) was ≤ 1 µg/mL, the MIC ([15]; Staphylococcus aureus) was ≤ 1 µg/mL and the MIC [25] was 1 µg/mL (≈ 0.69 µM). The MIC [26] was > 128 µg/mL, the MIC [3] was 2 µg/mL (≈ 1.38 µM) and the MIC [27] was 2 µg/mL (≈ 1.38 µM). The MIC [28] was 2 µg/mL (≈ 1.38 µM), the MBC [16] was 4 µg/mL (≈ 2.76 µM) and the MIC [16] was 4 µg/mL (≈ 2.76 µM). The MBC ([17]; Staphylococcus aureus, VRSA) was > 128 µg/mL, the MIC ([17]; Staphylococcus aureus, VRSA) was > 128 µg/mL and the MIC ([17]; VRSA VRS12) was >128 µg/mL. The Clostridium difficile inhibition ([4]; Table 6, P2) was 0.5, the Antibacterial activity [4] was 0.5 and the MBC [18] was 2 µg/mL (≈ 1.38 µM). The MIC [18] was 2 µg/mL (≈ 1.38 µM), the MIC ([19]; E. faecium ATCC) was >128 µg/mL and the MBC ([19]; Enterococcus faecium) was > 128 µg/mL. The MIC ([19]; Enterococcus faecium) was > 128 µg/mL, the MBC [20] was ≤ 1 µg/mL and the MIC [20] was ≤ 1 µg/mL. The MBC [21] was 2 µg/mL (≈ 1.38 µM), the MIC [21] was ≤ 1 µg/mL and the MBC [22] was ≤ 1 µg/mL. For the same compound, the MIC [22] was ≤ 1 µg/mL, the MBC [23] was ≤ 1 µg/mL and the MIC [23] was ≤ 1 µg/mL. For the same compound, the Clostridium difficile inhibition ([29]; Table 6, ATCC BAA 1801) was 1, the Antibacterial activity ([29]; Table 7, C. difficile ATCC BAA 1801) was 1 and the Clostridium difficile inhibition ([9]; Table 6, I9) was 2. The Antibacterial activity [9] was 1, the Clostridium difficile inhibition ([10]; Table 6, ATCC 43255) was 1 and the Antibacterial activity [10] was 1. The Clostridium difficile inhibition ([11]; Table 6, I6) was 1, the Antibacterial activity [11] was 0.25 and the Clostridium difficile inhibition ([12]; Table 6, P13) was 0.5. For the same compound, the Antibacterial activity [12] was 0.5, the Clostridium difficile inhibition [30] was 0.5 and the Clostridium difficile inhibition ([13]; Table 6, P19) was 4. It also gave an Antibacterial activity [13] of 1, a Clostridium difficile inhibition ([14]; Table 6, P30) of 0.5 and an Antibacterial activity [14] of 1.

With Colistin [reference compound] the MIC [31] was ≤1 µg/mL, the MIC [32] was ≤1 µg/mL and the MIC [33] was ≤1 µg/mL.
